{
  "source": "patent US12589085B2",
  "about": "“Use of diaminoguanidine derivative and feed composition thereof in preparation of veterinary drug” (priority 2019, dated 2026)",
  "key": {"[1]": {"tested_on": "bone marrow cells of mice", "conditions": "cyclophosphamide 40 mg/kg intraperitoneal, n = 5", "description": "Experimental animals: 60 clean and healthy ICR mice have the average weight of 18-20 g, half female and half male, purchased from the Comparative Medicine Center of Yangzhou University. […]\nSpecimen preparation: 6 hours after the second administration of the test article, […] and 5 […] in each group were sacrificed by cervical dislocation. […] The fixed smear is stained with Giemsa application solution for 15-30 min, rinsed with distilled water, dried, and gets ready for inspection.\nThe film was read by double-blind method, the number of polychromatic red blood cells (PCE) of each mouse was recorded in each group, including the number of micronucleus PCE cells, and the number of mature red blood cells (RBC), and the like. The number of polychromatic red blood cells (PCE) was calculated, including the number of micronucleus PCE cells and the number of mature red blood cells (RBC) in each test group of male and female mice respectively, and the results were listed.\nThe experimental data is processed by SPSS 11.0 statistical software, and the analysis result is expressed as x±SD, and the incidence of micronucleus is statistically processed according to the X^2 test (α=0.05)."}, "[2]": {"tested_on": "sperm", "conditions": "cyclophosphamide 40 mg/kg once a day 5 days", "description": "Experimental animals: 60 clean-grade healthy male ICR mice having the average weight of 18-20 g, purchased from the Comparative Medicine Center of Yangzhou University.\nReagents: Test agent, Compound 2, provided by Guangzhou Insighter Biotechnology Co., Ltd., was prepared into a suspension of the required concentration with 1.0% sodium carboxymethyl cellulose before use; the mutagenic positive control article of cyclophosphamide with the content of 99.00%; other reagents include sodium chloride, methanol, and eosin, all of analytical grade; self-prepared physiological saline; self-prepared eosin aqueous solution (2%).\nThe test article, Compound 2 was diluted with 1.0% sodium carboxymethyl cellulose as a solvent, and it was given by oral in different concentrations and the same volume. There is also a positive control and a negative (solvent) control. The cyclophosphamide was selected as the positive control (40 mg/kg).\nGrouping of experimental animals: 60 healthy male mice were individually weighed, labeled and numbered, and they were divided into 5 groups with 12 mice in each group using a completely random method. It was ensured that 10 animals in each group survive for sampling and film making after administration.\nAdministration: The administration method is carried out according to GB15193.7-2003. The test group, the negative control and the positive control are all given the test article by oral once a day for 5 consecutive days. The weight of the mouse for each administration was weighed, and the volume of the test article that each mouse should administer was calculated according to the requirements of the mouse 0.2 mL/10 g b.w.\nSampling and sample preparation: The mice were sacrificed by cervical dislocation on the Day 35 after the first administration, and sampling and film making were performed. 10 mice were sampled in each dose group. The abdominal cavity was cut, the epididymis on both sides were separated and extracted, and put in a petri dish containing 2 mL of normal saline; The mice were longitudinally cut with ophthalmological scissors for 2 times, the normal saline in it was pipetted with a straw for several times, and let stand for 3 min; the tissue fragments were filtered with a 4-layer of lens cleaning paper, 1 drop of the filtrate was drawn onto the glass slide, the slide was pushed with 4 slides per mouse; the slide in the air dried naturally, and fixed with methanol for 10 minutes, and dried; stained with 2% eosin for 1 h, the dye solution was gently washed off with water, and it was dried naturally before microscopic examination.\nData collation and analysis: The number of normal sperm, the number of abnormal sperm and the number of various types of abnormal sperm were read and counted in each dose group of mice. The sperm abnormality rate (%) of mice in each dose group and the percentage (%) of various types of abnormal sperm were calculated, and the standard deviation of the sperm abnormality rate of mice was also calculated in each dose group. Calculation as follows:\nThe sperm abnormality rate of mice in each dose group was statistically compared with the sperm abnormality rate of mice in the negative (solvent) control. The experimental data was processed by SPSS 11.0 statistical software, and the analysis results were expressed as x±SD, and the incidence of sperm abnormalities was statistically processed according to the X^2 (α=0.05).\nIf the dose of the test group has caused the animal to die, while the sperm abnormality has not increased, the result can be judged to be negative."}},
  "note": "Read-outs that look alike come from different tables or passages of the source.",
  "data": [
    {"molecule": "O=P1(N(CCCl)CCCl)NCCCO1", "note": "(stereo not drawn) [Positive control, cyclophosphamide, reference compound]", "values": [
      {"measurement": "PCE micronucleus rate", "setting": "[1]; female mice", "value": "15.00 ± 2.42 ‰"},
      {"measurement": "PCE micronucleus rate", "setting": "[1]; male mice", "value": "15.20 ± 2.37 ‰"},
      {"measurement": "Total number of abnormal sperm", "setting": "[2]; Day 35, 10000 sperm", "value": 559},
      {"measurement": "abnormal sperm: Amorphous", "setting": "[2]; Day 35, 10000 sperm", "value": 248},
      {"measurement": "abnormal sperm: Banana shape", "setting": "[2]; Day 35, 10000 sperm", "value": 91},
      {"measurement": "abnormal sperm: Double head", "setting": "[2]; Day 35, 10000 sperm", "value": 13},
      {"measurement": "abnormal sperm: Double tail", "setting": "[2]; Day 35, 10000 sperm", "value": 25},
      {"measurement": "abnormal sperm: Fat head", "setting": "[2]; Day 35, 10000 sperm", "value": 21},
      {"measurement": "abnormal sperm: Fold tail", "setting": "[2]; Day 35, 10000 sperm", "value": 12},
      {"measurement": "abnormal sperm: No hook", "setting": "[2]; Day 35, 10000 sperm", "value": 149},
      {"measurement": "Number of Abnormal sperm (x ± SD)", "setting": "[2]; Day 35, n = 10", "value": 55.90},
      {"measurement": "Sperm deformity", "setting": "[2]; Day 35, n = 10", "value": "5.26 ± 0.18", "unit": "%"}
    ]}
  ]
}
